Measured values from ChEMBL document CHEMBL1201861, “Genomics of Drug Sensitity in Cancer screening data, Wellcome Trust Sanger Institute”.

How the values were obtained:
Assay type in all cases: functional, cell-based
TC-YIK = experiment: SANGER: Inhibition of human TC-YIK cell growth in a cell viability assay.
NCI-H250 = experiment: SANGER: Inhibition of human NCI-H250 cell growth in a cell viability assay.
EW-12 = experiment: SANGER: Inhibition of human EW-12 cell growth in a cell viability assay.
NCI-H378 = experiment: SANGER: Inhibition of human NCI-H378 cell growth in a cell viability assay.
SNU-475 = experiment: cells; details: Homo sapiens
Description: SANGER: Inhibition of human SNU-475 cell growth in a cell viability assay.

HCC1143 = experiment: cells; details: Homo sapiens;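 also: growth inhibition of human HCC1143 cells, read out with a cell viability assay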
Description: SANGER: Inhibition of human HCC1143 cell growth in a cell viability assay.

NCI-H1975 = experiment: cells; details: Homo sapiens
Description: SANGER: Inhibition of human NCI-H1975 cell growth in a cell viability assay.

SK-MEL-5 = experiment: SANGER: Inhibition of human SK-MEL-5 cell growth in a cell viability assay.
Caov-4 = experiment: cells; details: Homo sapiens
Description: SANGER: Inhibition of human Caov-4 cell growth in a cell viability assay.

SK-MG-1 = experiment: SANGER: Inhibition of human SK-MG-1 cell growth in a cell viability assay.
CRO-AP2 = experiment: SANGER: Inhibition of human CRO-AP2 cell growth in a cell viability assay.
CP67-MEL = experiment: SANGER: Inhibition of human CP67-MEL cell growth in a cell viability assay.
KP-N-RT-BM-1 = experiment: SANGER: Inhibition of human KP-N-RT-BM-1 cell growth in a cell viability assay.

| Structure (SMILES) | IC50 (EW-12) [µM] | IC50 (SNU-475) [µM] | IC50 (HCC1143) [µM] | other results |
| --- | --- | --- | --- | --- |
| C=C1C(=O)O[C@@H]2C3O[C@]3(C)CC/C=C(\C)CC[C@@H]12 (some centres not stated) | > 5 |  |  | IC50 (TC-YIK): > 5000 nM; IC50 (NCI-H250): > 5 µM; IC50 (NCI-H378): > 5 µM |
| COC(=O)CNC(=O)C(=O)OC |  | 2580 | > 4000 |  |
| CN(C)C/C=C/C(=O)Nc1cc2c(Nc3ccc(F)c(Cl)c3)ncnc2cc1O[C@H]1CCOC1 [AFATINIB] |  |  |  | IC50 (NCI-H1975): > 0.5 µM |
| Cc1cc([C@@H](C)Nc2ccccc2C(=O)O)c2nc(N3CCOCC3)cc(=O)n2c1 [AZD-6482] |  | > 5.12 | > 5.12 | IC50 (NCI-H1975): > 5.12 µM; IC50 (SK-MEL-5): > 5.12 µM; IC50 (Caov-4): > 5120 nM; IC50 (SK-MG-1): > 5.12 µM |
| O=C(NOCC1CC1)c1ccc(F)c(F)c1Nc1ccc(I)cc1Cl [CI-1040] |  |  |  | IC50 (NCI-H1975): 6.47 µM |
| CC1=C2C[C@H]3[C@@H](CC=C4C[C@@H](O)CC[C@@]43C)[C@@H]2CC[C@]12O[C@@H]1C[C@H](C)CN[C@H]1[C@H]2C [CYCLOPAMINE] | > 16 |  |  |  |
| Nc1ccn([C@@H]2O[C@H](CO)[C@@H](O)[C@@H]2O)c(=O)n1 [CYTARABINE] |  |  |  | IC50 (NCI-H1975): > 2 µM |
| COc1cc([C@@H]2c3cc4c(cc3[C@@H](O[C@@H]3O[C@@H]5CO[C@@H](C)O[C@H]5[C@H](O)[C@H]3O)[C@H]3COC(=O)[C@H]23)OCO4)cc(OC)c1O [ETOPOSIDE] |  | > 16 | > 16 | IC50 (Caov-4): > 16000 nM |
| Cc1cnc(-c2cnc(NCCNc3ccc(C#N)cn3)nc2-c2ccc(Cl)cc2Cl)[nH]1 [LADUVIGLUSIB] |  | > 2.56 | > 2.56 | IC50 (Caov-4): > 2560 nM |
| CS(=O)(=O)CCNCc1ccc(-c2ccc3ncnc(Nc4ccc(OCc5cccc(F)c5)c(Cl)c4)c3c2)o1 [LAPATINIB] | > 2 |  |  |  |
| C[C@]1(O)C[C@@H](c2nc(-c3ccc4ccc(-c5ccccc5)nc4c3)c3c(N)nccn32)C1 [LINSITINIB] |  | > 2.56 | 2.45 |  |
| C=CCc1cccc(/C=N/NC(=O)CN2CCN(Cc3ccccc3)CC2)c1O [PAC-1] |  | > 2.56 | > 2.56 |  |
| Cc1ccc(Nc2nccc(N(C)c3ccc4c(C)n(C)nc4c3)n2)cc1S(N)(=O)=O [PAZOPANIB] |  | > 8 | > 8 |  |
| CN(c1ncccc1CNc1nc(Nc2ccc3c(c2)CC(=O)N3)ncc1C(F)(F)F)S(C)(=O)=O [PF-00562271] |  | > 2.56 | > 2.56 | IC50 (Caov-4): > 2560 nM |
| CCc1nc(N)nc(N)c1-c1ccc(Cl)cc1 [PYRIMETHAMINE] | > 20 |  |  | IC50 (CRO-AP2): 18.7 µM |
| O=C(/C=C/c1ccccc1)NC(NC(=S)Nc1cccc2cccnc12)C(Cl)(Cl)Cl (configuration not stated) [SALUBRINAL] | > 16 |  |  |  |
| CN1CCN(CCOc2cc(OC3CCOCC3)c3c(Nc4c(Cl)ccc5c4OCO5)ncnc3c2)CC1 [SARACATINIB] | > 2 |  |  | IC50 (CRO-AP2): > 2 µM; IC50 (CP67-MEL): > 2000 nM; IC50 (KP-N-RT-BM-1): > 2000 nM |
| Cn1cc(C2=C(c3ccc(Cl)cc3Cl)C(=O)NC2=O)c2ccccc21 [SB-216763] |  |  |  | IC50 (NCI-H1975): > 10 µM |
| CO[C@H]1C[C@@H]2CC[C@@H](C)[C@@](O)(O2)C(=O)C(=O)N2CCCC[C@H]2C(=O)O[C@H]([C@H](C)C[C@@H]2CC[C@@H](O)[C@H](OC)C2)CC(=O)[C@H](C)/C=C(\C)[C@@H](O)[C@@H](OC)C(=O)[C@H](C)C[C@H](C)/C=C/C=C/C=C/1C [SIROLIMUS] | > 0.1 |  |  | IC50 (TC-YIK): > 100 nM; IC50 (CP67-MEL): > 100 nM; IC50 (KP-N-RT-BM-1): > 100 nM |
| CNC(=O)c1cc(Oc2ccc(NC(=O)Nc3ccc(Cl)c(C(F)(F)F)c3)cc2)ccn1 [SORAFENIB] | > 4 |  |  | IC50 (CRO-AP2): > 4 µM |
| Cn1cncc1[C@@](N)(c1ccc(Cl)cc1)c1ccc2c(c1)c(-c1cccc(Cl)c1)cc(=O)n2C [TIPIFARNIB] |  | > 16 | 13.3 |  |
| CCC(=O)N1CCN(c2ccc(-n3c(=O)ccc4cnc5ccc(-c6cnc7ccccc7c6)cc5c43)cc2C(F)(F)F)CC1 [TORIN1] | > 1.2 |  |  | IC50 (CP67-MEL): 37.6 nM; IC50 (KP-N-RT-BM-1): > 1200 nM |
| Cc1cc(Nc2cc(N3CCN(C)CC3)nc(Sc3ccc(NC(=O)C4CC4)cc3)n2)n[nH]1 [TOZASERTIB] | > 2 |  |  | IC50 (CP67-MEL): > 2000 nM; IC50 (KP-N-RT-BM-1): > 2000 nM |
| CCC1=C[C@@H]2CN(C1)Cc1c([nH]c3ccccc13)[C@@](C(=O)OC)(c1cc3c(cc1OC)N(C)[C@H]1[C@@](O)(C(=O)OC)[C@H](OC(C)=O)[C@]4(CC)C=CCN5CC[C@]31[C@@H]54)C2 [VINORELBINE] |  | > 0.064 | > 0.064 | IC50 (Caov-4): > 64 nM |
